According to patent US8008092B2, “CCR3 inhibition for ocular angiogenesis and macular degeneration” (University of Kentucky Research Foundation, priority 2007, dated 2011):

B1: Eotaxin-3: recombinant human eotaxin-3 (Peprotech), CCR3 ligand (protein, UniProt Q9Y258 24-94, looked up)
C-C motif chemokine 26: TRGSDISKTCCFQYSHKPLPWTWVRSYEFTSNSCSQRAVIFTTKRGKKVCTHPRKKWVQKYISLLKTPKQL
B2: Eotaxin-2: recombinant human eotaxin-2 (Peprotech), CCR3 ligand (protein, UniProt O00175 27-119, looked up)
C-C motif chemokine 24: VVIPSPCCMFFVSKRIPENRVVSYQLSSRSTCLKAGVIFTTKKGQQFCGDPKQEWVQRYMKNLDAKQKKASPRARAVAVKGPVQRYPGNQTTC

Key:
[1] = tested on: choroidal neovascularization (CNV); experiment: Laser-induced choroidal neovascularization (CNV) volume, intravitreous injection; format: in vivo, C57BL/6J mice; conditions: wild-type mice, injected into the vitreous humor immediately after laser injury; compared to vehicle control (DMSO)
Procedure: Laser photocoagulation (532 nm, 200 mW, 100 ms, 75 μm) (OcuLight GL, Iridex Corporation) was performed (volume studies: 3/eye; protein analyses/flow cytometry: 12/eye) on both eyes of each animal to induce CNV (choroidal neovascularization). CNV volumes were measured by scanning laser confocal microscope (TCS SP, Leica) with 0.5% FITC-Griffonia simplicifolia Isolectin B4 (Vector Laboratories). CNV was induced by laser injury in C57BL/6J and Ccr3^−/− mice and volumes measured 7 days later by confocal evaluation of Griffonia simplicifolia Isolectin B4 staining of RPE-choroid flatmounts. […]
Because the probability of each laser lesion developing CNV is influenced by the group to which it belongs, the mouse, the eye, and the laser spot, the mean lesion volumes were compared using a linear mixed model with a split plot repeated measures design. […] Statistical significance was determined at the 0.05 level. […]
Laser photocoagulation (532 nm, 200 mW, 100 ms, 75 μm) (OcuLight GL, Iridex Corporation) was performed (volume studies: 3/eye; protein analyses/flow cytometry: 12/eye) on both eyes of each animal to induce CNV. CNV volumes were measured by scanning laser confocal microscope (TCS SP, Leica) with 0.5% FITC-Griffonia simplicifolia Isolectin B4 (Vector Laboratories) or 0.5% FITC-rat antibody against mouse CD31 (BD Biosciences). […]

primary hCEC = experiment: F-actin polymerization assay; format: cell-based, human; conditions: eotaxin-1 10 ng/mL, eotaxin-2 100 ng/mL, eotaxin-3 2 μg/mL
Procedure: A F-actin polymerization assay was performed. 10,000 cells from early passage primary hCEC isolates (n=3) were seeded in black-walled 96-well plates and grown to 70-80% confluency in fully supplemented EGM-2MV. Cultures were serum starved overnight in basal media and then stimulated with recombinant human eotaxin-1 (10 ng/mL), eotaxin-2 (100 ng/mL), eotaxin-3 (2 μg/mL) (Peprotech), or vehicle control (PBS). At 0, 10, 30, 60, or 120 second time-points (n=4 per group), cells were fixed in 3.7% paraformaldehyde for 10 minutes, washed, permeabilized in PBS with 0.1% Triton-X, and then stained with rhodamine labeled Phalloidin (1:200, Invitrogen) per manufacturer's recommendations. Plates were analyzed on a fluorescent plate reader (Synergy 4, Biotek) followed by fluorescent microscopy (Nikon E800).
F-actin polymer ratios between baseline and treated cultures were calculated using a fluorescent based plate assay.

[2] = tested on: Rac-1 GTPase in Human CECs (hCECs); experiment: Rac-1 activation assay (GST-Pak1-PBD pull-down, western blot); format: cell-based; conditions: hCEC, eotaxin-1 10 ng/ml, at 10 seconds, normalized against control band density
Procedure: A Rac-1 activation assay was performed. Human CECs were cultured in EGM-2 MV containing 5% FBS. Prior to starting the assay, cells were serum starved with basal medium (MCDB131) supplemented with 1% FB S overnight. Cells were stimulated for designated times with Eotaxin-1, 2 and 3 (10 ng/ml, 100 ng/ml and 2 μg/ml respectively). Equal amounts of lysates (500 μg) were incubated with GST-Pak1-PBD agarose beads (Upstate) to pull-down active GTP-bound Rac-1 at 4° C. for 1 hour with rotation. The samples were subsequently analyzed for bound Rac-1 by western blot analysis using an anti-Rac-1 antibody (Upstate). Band density was measured using VisionWorksLS software (UVP).
hCECs) were stimulated with Eotaxin-1, 2 and 3 for indicated times. Cells without Eotaxin stimulation were used as a control (0 sec). Equal amount (500 μg) of total cell lysates was used to determine the GTP-bound Rac-1 (active) by pull-down assays. Levels of increase of active Rac-1 were measured after normalizing against the control band density.

Molecule	CNV volume [1]	time of peak F-actin polymerization after stimulation (primary hCEC) [s]	increase of Rac-1 activation [2]
(S)-Methyl-2-naphthoylamino-3-(4-nitrophenyl)propionate [SB328437]	reduces CNV volume in a dose-dependent and statistically significant manner		
Eotaxin-1: recombinant human eotaxin-1 (Peprotech), CCR3 ligand		10	about 6.5 fold
B1		10	
B2		10	
